Test results reported in PMC9817970 (Cancers, 2022).

Key:
Assay in all cases: Kinase panel profiling
Assay type in all cases: biochemical
Details in all cases: 10 μM ATP
[1] = target: T1, MSSK1/STK23 (Homo sapiens, UniProt Q9UPE1)
T1 construct: purchased Reaction Biology Corp
Protocol: (§1) Kinase panel profiling was conducted by Reaction Biology Corp. (San Diego, CA, USA). A single dose (1.0 μM) of 6r was tested against 371 recombinant human kinases in the presence of 10 μM ATP.

[2] = target: T2, ERN2/IRE2 (Homo sapiens, UniProt Q76MJ5)
T2 construct: purchased Reaction Biology Corp
Protocol: as §1

[3] = target: T3, SIK3 (Homo sapiens, UniProt Q9Y2K2)
T3 construct: purchased Reaction Biology Corp
Protocol: as §1

[4] = target: T4, PKCnu/PRKD3 (Homo sapiens, UniProt O94806)
T4 construct: purchased Reaction Biology Corp
Protocol: as §1

[5] = target: T5, MEK2 (Homo sapiens, UniProt P36507)
T5 construct: purchased Reaction Biology Corp
T5 sequence (P36507 whole entry): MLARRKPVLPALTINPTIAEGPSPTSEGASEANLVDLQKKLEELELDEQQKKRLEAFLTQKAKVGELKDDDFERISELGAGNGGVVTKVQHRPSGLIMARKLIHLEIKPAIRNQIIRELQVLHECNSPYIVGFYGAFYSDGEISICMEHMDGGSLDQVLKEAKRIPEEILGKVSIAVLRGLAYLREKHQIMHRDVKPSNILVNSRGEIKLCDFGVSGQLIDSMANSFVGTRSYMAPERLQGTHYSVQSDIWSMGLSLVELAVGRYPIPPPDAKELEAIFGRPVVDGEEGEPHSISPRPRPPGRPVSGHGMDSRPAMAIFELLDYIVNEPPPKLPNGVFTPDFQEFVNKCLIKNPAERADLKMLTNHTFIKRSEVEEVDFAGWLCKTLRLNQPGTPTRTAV
Protocol: as §1

[6] = target: T6, MLK4 (Homo sapiens, UniProt Q5TCX8)
T6 construct: purchased Reaction Biology Corp
Protocol: as §1

[7] = target: T7, ERBB2/HER2 (Homo sapiens, UniProt P04626)
T7 construct: purchased Reaction Biology Corp
Protocol: as §1

[8] = target: T8, KHS/MAP4K5 (Homo sapiens, UniProt Q9Y4K4)
T8 construct: purchased Reaction Biology Corp
Protocol: as §1

[9] = target: T9, DYRK1B (Homo sapiens, UniProt Q9Y463)
T9 construct: purchased Reaction Biology Corp
Protocol: as §1

[10] = target: T10, TSSK3/STK22C (Homo sapiens, UniProt Q96PN8)
T10 construct: purchased Reaction Biology Corp
Protocol: as §1

[11] = target: T11, CDK3/cyclin E (Homo sapiens, UniProt Q00526)
T11 construct: purchased Reaction Biology Corp
Protocol: as §1

[12] = target: T12, EPHA7 (Homo sapiens, UniProt Q15375)
T12 construct: purchased Reaction Biology Corp
T12 sequence (Q15375 28-998): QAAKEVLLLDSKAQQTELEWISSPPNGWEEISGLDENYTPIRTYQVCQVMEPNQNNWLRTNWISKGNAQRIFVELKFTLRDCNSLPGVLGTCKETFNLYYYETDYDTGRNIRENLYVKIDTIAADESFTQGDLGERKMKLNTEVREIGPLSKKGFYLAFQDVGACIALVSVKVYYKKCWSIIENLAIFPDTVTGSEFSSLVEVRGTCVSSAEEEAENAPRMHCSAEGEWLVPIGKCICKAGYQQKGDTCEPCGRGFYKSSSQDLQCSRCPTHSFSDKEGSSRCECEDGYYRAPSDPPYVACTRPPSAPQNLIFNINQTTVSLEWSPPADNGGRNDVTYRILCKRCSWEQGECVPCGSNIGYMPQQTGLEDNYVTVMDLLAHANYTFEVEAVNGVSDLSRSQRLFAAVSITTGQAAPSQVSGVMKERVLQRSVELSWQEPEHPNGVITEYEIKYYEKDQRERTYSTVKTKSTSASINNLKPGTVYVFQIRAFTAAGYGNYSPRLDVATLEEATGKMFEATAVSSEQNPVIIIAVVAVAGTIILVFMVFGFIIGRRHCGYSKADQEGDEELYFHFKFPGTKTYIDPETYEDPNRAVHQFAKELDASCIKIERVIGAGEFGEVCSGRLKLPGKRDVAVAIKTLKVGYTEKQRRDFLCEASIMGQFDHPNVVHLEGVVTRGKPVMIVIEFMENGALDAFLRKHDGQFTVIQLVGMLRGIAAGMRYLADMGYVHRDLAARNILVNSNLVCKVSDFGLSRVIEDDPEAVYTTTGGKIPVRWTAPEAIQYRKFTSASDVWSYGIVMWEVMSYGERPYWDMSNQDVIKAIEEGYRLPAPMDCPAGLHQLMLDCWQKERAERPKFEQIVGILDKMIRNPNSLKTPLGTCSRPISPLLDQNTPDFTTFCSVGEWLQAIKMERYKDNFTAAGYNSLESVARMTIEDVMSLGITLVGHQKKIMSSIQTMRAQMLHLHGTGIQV
Protocol: as §1

[13] = target: T13, PYK2 (Homo sapiens, UniProt Q14289)
T13 construct: purchased Reaction Biology Corp
Protocol: as §1

[14] = target: T14, PLK3 (Homo sapiens, UniProt Q9H4B4)
T14 construct: purchased Reaction Biology Corp
Protocol: as §1

[15] = target: T15, AKT2 (Homo sapiens, UniProt P31751)
T15 construct: purchased Reaction Biology Corp
Protocol: as §1

[16] = target: T16, NEK6 (Homo sapiens, UniProt Q9HC98)
T16 construct: purchased Reaction Biology Corp
T16 sequence (Q9HC98 whole entry): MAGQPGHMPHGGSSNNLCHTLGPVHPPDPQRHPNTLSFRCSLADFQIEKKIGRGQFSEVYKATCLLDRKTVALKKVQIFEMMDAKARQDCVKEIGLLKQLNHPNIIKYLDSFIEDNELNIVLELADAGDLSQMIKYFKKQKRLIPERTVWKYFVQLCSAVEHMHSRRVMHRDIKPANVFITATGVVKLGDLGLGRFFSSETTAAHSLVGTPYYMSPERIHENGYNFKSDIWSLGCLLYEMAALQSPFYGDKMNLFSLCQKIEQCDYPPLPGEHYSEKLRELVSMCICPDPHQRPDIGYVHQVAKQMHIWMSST
Protocol: as §1

[17] = target: T17, CDK2/Cyclin A1 (Homo sapiens, UniProt P24941)
T17 construct: purchased Reaction Biology Corp
Protocol: as §1

[18] = target: T18, MAK (Homo sapiens, UniProt P20794)
T18 construct: purchased Reaction Biology Corp
Protocol: as §1

[19] = target: T19, PAK5 (Homo sapiens, UniProt Q9P286)
T19 construct: purchased Reaction Biology Corp
Protocol: as §1

[20] = target: T20, CDK1/cyclin E (Homo sapiens, UniProt P06493)
T20 construct: purchased Reaction Biology Corp
Protocol: as §1

[21] = target: T21, VRK2 (Homo sapiens, UniProt Q86Y07)
T21 construct: purchased Reaction Biology Corp
Protocol: as §1

[22] = target: T22, RIPK5 (Homo sapiens, UniProt Q6XUX3)
T22 construct: purchased Reaction Biology Corp
T22 sequence (Q6XUX3 whole entry): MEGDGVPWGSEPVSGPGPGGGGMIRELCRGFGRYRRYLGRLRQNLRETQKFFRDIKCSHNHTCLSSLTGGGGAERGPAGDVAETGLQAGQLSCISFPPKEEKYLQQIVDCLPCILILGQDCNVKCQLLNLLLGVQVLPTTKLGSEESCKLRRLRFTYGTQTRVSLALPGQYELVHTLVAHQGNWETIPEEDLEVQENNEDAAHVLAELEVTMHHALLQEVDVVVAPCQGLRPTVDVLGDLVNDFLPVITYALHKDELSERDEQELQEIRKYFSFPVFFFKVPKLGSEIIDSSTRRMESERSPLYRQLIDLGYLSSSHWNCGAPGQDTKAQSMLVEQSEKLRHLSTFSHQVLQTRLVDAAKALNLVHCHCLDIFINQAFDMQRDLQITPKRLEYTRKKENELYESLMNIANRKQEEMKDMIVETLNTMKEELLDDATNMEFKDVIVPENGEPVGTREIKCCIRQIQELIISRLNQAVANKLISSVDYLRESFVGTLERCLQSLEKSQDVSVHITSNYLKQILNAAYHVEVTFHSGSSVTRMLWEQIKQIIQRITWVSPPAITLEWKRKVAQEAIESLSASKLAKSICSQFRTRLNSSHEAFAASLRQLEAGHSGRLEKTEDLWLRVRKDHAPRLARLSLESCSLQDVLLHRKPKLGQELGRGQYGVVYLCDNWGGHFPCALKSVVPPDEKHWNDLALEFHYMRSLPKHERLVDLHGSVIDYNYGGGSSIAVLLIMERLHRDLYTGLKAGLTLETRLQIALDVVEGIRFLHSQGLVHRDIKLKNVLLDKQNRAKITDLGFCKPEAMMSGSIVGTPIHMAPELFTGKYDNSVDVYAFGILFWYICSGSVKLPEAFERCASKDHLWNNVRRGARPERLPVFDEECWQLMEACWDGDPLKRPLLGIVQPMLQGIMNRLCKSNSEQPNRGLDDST
Protocol: as §1

[23] = target: T23, PKN2/PRK2 (Homo sapiens, UniProt Q16513)
T23 construct: purchased Reaction Biology Corp
Protocol: as §1

[24] = target: T24, CDK17/cyclin Y (PCTK2) (Homo sapiens, UniProt Q00537)
T24 construct: purchased Reaction Biology Corp
Protocol: as §1

[25] = target: T25, CDK2/cyclin O (Homo sapiens, UniProt P24941)
T25 construct: purchased Reaction Biology Corp
Protocol: as §1

[26] = target: T26, CAMK2a (Homo sapiens, UniProt Q9UQM7)
T26 construct: purchased Reaction Biology Corp
T26 sequence (Q9UQM7 whole entry): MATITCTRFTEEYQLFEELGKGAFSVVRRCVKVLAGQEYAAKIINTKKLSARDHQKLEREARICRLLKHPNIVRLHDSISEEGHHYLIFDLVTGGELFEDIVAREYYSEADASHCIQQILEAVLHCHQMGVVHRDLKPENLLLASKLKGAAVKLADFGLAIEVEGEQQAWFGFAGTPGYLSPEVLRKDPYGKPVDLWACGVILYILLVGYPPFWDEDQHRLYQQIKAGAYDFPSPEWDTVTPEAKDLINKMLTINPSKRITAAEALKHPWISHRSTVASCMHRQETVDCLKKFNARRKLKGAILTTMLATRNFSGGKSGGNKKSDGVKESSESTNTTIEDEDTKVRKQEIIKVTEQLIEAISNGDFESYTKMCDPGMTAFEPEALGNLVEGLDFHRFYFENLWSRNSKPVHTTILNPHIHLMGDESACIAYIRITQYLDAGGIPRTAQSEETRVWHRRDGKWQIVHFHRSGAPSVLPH
Protocol: as §1

[27] = target: T27, TAOK1 (Homo sapiens, UniProt Q7L7X3)
T27 construct: purchased Reaction Biology Corp
Protocol: as §1

[28] = target: T28, FLT4/VEGFR3 (Homo sapiens, UniProt P35916)
T28 construct: purchased Reaction Biology Corp
Protocol: as §1

[29] = target: T29, ARK5/NUAK1 (Homo sapiens, UniProt O60285)
T29 construct: purchased Reaction Biology Corp
T29 sequence (O60285 whole entry): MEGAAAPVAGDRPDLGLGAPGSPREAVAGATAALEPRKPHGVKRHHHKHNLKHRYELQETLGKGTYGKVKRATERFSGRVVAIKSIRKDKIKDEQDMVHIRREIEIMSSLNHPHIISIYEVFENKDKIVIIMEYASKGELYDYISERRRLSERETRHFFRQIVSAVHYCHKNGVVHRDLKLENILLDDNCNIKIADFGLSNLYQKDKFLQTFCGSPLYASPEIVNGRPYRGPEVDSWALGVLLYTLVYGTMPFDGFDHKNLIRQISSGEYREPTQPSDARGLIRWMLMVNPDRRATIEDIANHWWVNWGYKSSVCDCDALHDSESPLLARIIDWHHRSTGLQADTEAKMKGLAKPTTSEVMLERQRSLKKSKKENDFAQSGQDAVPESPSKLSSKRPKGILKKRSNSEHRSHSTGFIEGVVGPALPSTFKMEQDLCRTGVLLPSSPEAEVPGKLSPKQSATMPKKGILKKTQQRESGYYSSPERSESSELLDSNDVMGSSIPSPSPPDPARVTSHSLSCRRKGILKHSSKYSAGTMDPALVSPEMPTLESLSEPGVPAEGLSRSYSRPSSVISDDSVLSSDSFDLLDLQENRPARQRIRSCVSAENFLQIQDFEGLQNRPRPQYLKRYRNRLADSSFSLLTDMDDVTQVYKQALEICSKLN
Protocol: as §1

[30] = target: T30, FGR (Homo sapiens, UniProt P09769)
T30 construct: purchased Reaction Biology Corp
Protocol: as §1

[31] = target: T31, STK32B/YANK2 (Homo sapiens, UniProt Q9NY57)
T31 construct: purchased Reaction Biology Corp
T31 sequence (Q9NY57 whole entry): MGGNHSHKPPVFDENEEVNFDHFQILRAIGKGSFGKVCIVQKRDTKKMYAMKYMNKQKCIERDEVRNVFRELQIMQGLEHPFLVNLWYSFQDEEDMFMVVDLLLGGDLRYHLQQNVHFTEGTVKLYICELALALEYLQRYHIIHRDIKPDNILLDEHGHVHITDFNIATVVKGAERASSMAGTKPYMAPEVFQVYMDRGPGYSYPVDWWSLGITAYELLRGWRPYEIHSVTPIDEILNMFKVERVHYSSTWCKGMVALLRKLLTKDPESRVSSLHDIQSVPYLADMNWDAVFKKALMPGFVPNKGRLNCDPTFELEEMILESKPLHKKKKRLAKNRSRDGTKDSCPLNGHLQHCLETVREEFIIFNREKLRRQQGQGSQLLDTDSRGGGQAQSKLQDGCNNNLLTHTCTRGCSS
Protocol: as §1

[32] = target: T32, PDGFRb (Homo sapiens, UniProt P09619)
T32 construct: purchased Reaction Biology Corp
Protocol: as §1

[33] = target: T33, NEK9 (Homo sapiens, UniProt Q8TD19)
T33 construct: purchased Reaction Biology Corp
Protocol: as §1

[34] = target: T34, KSR1 (Homo sapiens, UniProt Q8IVT5)
T34 construct: purchased Reaction Biology Corp
Protocol: as §1

[35] = target: T35, PAK6 (Homo sapiens, UniProt Q9NQU5)
T35 construct: purchased Reaction Biology Corp
Protocol: as §1

[36] = target: T36, CDK2/CYCLIN E (Homo sapiens, UniProt P24941)
T36 construct: purchased Reaction Biology Corp
Protocol: as §1

[37] = target: T37, HCK (Homo sapiens, UniProt P08631)
T37 construct: purchased Reaction Biology Corp
Protocol: as §1

[38] = target: T38, DCAMKL1 (Homo sapiens, UniProt O15075)
T38 construct: purchased Reaction Biology Corp
T38 sequence (O15075 whole entry): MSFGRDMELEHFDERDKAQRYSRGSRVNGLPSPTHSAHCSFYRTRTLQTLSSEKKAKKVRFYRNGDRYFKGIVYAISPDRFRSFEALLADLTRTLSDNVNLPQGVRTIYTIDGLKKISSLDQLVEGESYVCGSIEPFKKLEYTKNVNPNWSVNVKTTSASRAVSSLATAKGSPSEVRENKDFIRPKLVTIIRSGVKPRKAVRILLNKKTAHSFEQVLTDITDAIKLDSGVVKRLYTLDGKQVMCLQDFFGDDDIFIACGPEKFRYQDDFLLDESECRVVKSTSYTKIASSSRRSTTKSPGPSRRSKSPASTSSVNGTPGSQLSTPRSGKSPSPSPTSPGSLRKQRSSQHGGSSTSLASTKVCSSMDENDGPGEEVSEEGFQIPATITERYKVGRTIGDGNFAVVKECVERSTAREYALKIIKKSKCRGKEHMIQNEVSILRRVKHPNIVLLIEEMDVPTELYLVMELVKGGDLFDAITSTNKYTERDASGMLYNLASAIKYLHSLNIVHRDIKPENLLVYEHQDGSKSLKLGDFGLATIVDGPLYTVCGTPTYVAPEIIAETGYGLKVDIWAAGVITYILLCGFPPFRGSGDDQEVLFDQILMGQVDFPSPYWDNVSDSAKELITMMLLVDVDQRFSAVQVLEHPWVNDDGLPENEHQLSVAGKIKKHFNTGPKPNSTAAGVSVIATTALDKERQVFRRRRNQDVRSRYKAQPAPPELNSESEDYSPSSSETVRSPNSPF
Protocol: as §1

[39] = target: T39, CAMK4 (Homo sapiens, UniProt Q16566)
T39 construct: purchased Reaction Biology Corp
Protocol: as §1

[40] = target: T40, YSK4/MAP3K19 (Homo sapiens, UniProt Q56UN5)
T40 construct: purchased Reaction Biology Corp
Protocol: as §1

[41] = target: T41, FER (Homo sapiens, UniProt P16591)
T41 construct: purchased Reaction Biology Corp
Protocol: as §1

[42] = target: T42, RSK3 (Homo sapiens, UniProt Q15349)
T42 construct: purchased Reaction Biology Corp
Protocol: as §1

## Cc1ccc(NC(=O)c2ccc(CN3CCN(C)CC3)c(C(F)(F)F)c2)cc1-c1cnc2sc(N)nc2c1 [6r]
[1]
  inhibition at 1 µM: 30.6%
[2]
  inhibition at 1 µM: 12.9%
[3]
  inhibition at 1 µM: 0%
[4]
  inhibition at 1 µM: 23.8%
[5]
  inhibition at 1 µM: 7.1%
[6]
  inhibition at 1 µM: 6.5%
[7]
  inhibition at 1 µM: 5.4%
[8]
  inhibition at 1 µM: 0%
[9]
  inhibition at 1 µM: 26.2%
[10]
  inhibition at 1 µM: 0%
[11]
  inhibition at 1 µM: 14.3%
[12]
  inhibition at 1 µM: 40.7%
[13]
  inhibition at 1 µM: 48.1%
[14]
  inhibition at 1 µM: 4.8%
[15]
  inhibition at 1 µM: 14%
[16]
  inhibition at 1 µM: 1%
[17]
  inhibition at 1 µM: 7.6%
[18]
  inhibition at 1 µM: 15%
[19]
  inhibition at 1 µM: 5%
[20]
  inhibition at 1 µM: 0%
[21]
  inhibition at 1 µM: 20.1%
[22]
  inhibition at 1 µM: 4.4%
[23]
  inhibition at 1 µM: 0%
[24]
  inhibition at 1 µM: 3.9%
[25]
  inhibition at 1 µM: 12.3%
[26]
  inhibition at 1 µM: 16%
[27]
  inhibition at 1 µM: 6.1%
[28]
  inhibition at 1 µM: 77.8%
[29]
  inhibition at 1 µM: 14.7%
[30]
  inhibition at 1 µM: 87.7%
[31]
  inhibition at 1 µM: 0%
[32]
  inhibition at 1 µM: 94.2%
[33]
  inhibition at 1 µM: 0%
[34]
  inhibition at 1 µM: 5.5%
[35]
  inhibition at 1 µM: 7.6%
[36]
  inhibition at 1 µM: 0%
[37]
  inhibition at 1 µM: 83.1%
[38]
  inhibition at 1 µM: 1.5%
[39]
  inhibition at 1 µM: 3.2%
[40]
  inhibition at 1 µM: 0%
[41]
  inhibition at 1 µM: 0%
[42]
  inhibition at 1 µM: 5.4%
